Tests used:
Assay type in all cases: cell-based
[1] = tested on: cofilin (pS3) in AR42J cells; experiment: cofilin activation (pS3 cofilin Western blot) in AR42J cells; details: Cytochalasin D 10 µM or Paclitaxel 5 µM, 4 h; A71378 30 nM 10 min
Method: (§1) CCK1 receptor transfected Panc-1 (CCK1-R/Panc-1) cells ([Berna et al., 2009]) and AR42J cells, were cultured in DMEM supplemented with 10% FBS and 1% penicillin/streptomycin and in RPMI supplemented with 10% FBS and 1% penicillin/streptomycin, respectively; and split 1:10 weekly with trypsin/EDTA, after washing in PBS. Finally, cells were seeded in 6-well plate and serum starved overnight, until they were 80% confluent. Cells were incubated at 37°C in 5% CO2/95% air. AR42J cells were treated with 100 nM dexamethasone for 72°h, which stimulates their differentiation into exocrine cells ([Logsdon, 1986]).
(§2) Western blotting and immunoprecipitation were performed as described previously ([Ramos-Alvarez and Jensen, 2018]). Whole cell lysates were subjected to SDS-PAGE using 4%–20% Tris–Glycine gels. […] The intensity of the protein bands was measured using GeneTools software from Syngene, which were assessed in the linear detection range.
(§3) FIGURE 12 Effect of two cofilin inhibitors, Cytochalasin D or Paclitaxel (A, B), or cofilin siRNA (C), on the ability of A71378 (30 and 10 nM) to alter activation of cofilin (A) and p44/42 (B, C). […] Western blots were analyzed using anti-pS3 cofilin, anti-pT202/Y204 p44/42 and Tubulin. Bands were visualized using chemiluminescence and quantified by densitometry. […] Results are expressed as % of basal stimulation of the control group. […]

[2] = tested on: p44/42 MAPK in AR42J cells; experiment: p44/42 MAPK activation (pT202/Y204 Western blot) in AR42J cells; details: Cytochalasin D 10 µM or Paclitaxel 5 µM, 4 h; A71378 30 nM 10 min
Method: as §1
as §2, with “range. […]” for “range.”
as §3

[3] = tested on: AR42J cells; experiment: amylase release from AR42J cells (Phadebas); details: Cytochalasin D 10 µM or Paclitaxel 5 µM; for inhibition of CCK-8/A71378-induced amylase secretion: 4 h, CCK-8 and A71378 (0.03 and 1 nM), 30 min; for effect on basal amylase release: AR42J (Figure 13B)
Method: as §1
For siRNA-mediated knockdown, 5 × 10^5 CCK1-R/Panc-1 or AR42J cells were seeded into 6-well plates and incubated for 24 h. Cells were then transfected with 10 nM of siRNA against human SSH1 siRNA against human cofilin (Dharmacon. Lafayette, CO) in Opti-MEM medium for 48 h using Lipofectamine according to the manufacture’s instruction.
Amylase release was performed as described previously ([Sato et al., 1989]; [Ramos-Alvarez and Jensen, 2018]). Amylase activity was determined after 30 min incubation using the Phadebas reagent and was expressed as percentage of the total cellular amylase released into the extracellular medium during the incubation ([Ramos-Alvarez and Jensen, 2018]).
FIGURE 13 Effect of two cofilin inhibitors, Cytochalasin D or Paclitaxel, (A, B), or Cofilin siRNA (C), on the ability of CCK/TPA/A71378-stimulated amylase release form pancreatic acini (A) or AR42J cells (B, C). In (A, B) pancreatic acini and AR42J cells were incubated in the absence or presence of Cytochalasin D (10 µM) or Paclitaxel (5 µM) for 4 h and then incubated with no additions (control) or CCK-8 (0.03, 0.3, 1 and 100 nM), TPA (1 µM) or A71378 (0.03 and 1 nM) for 30 min and then lysed. In (B, C) AR42J cells were treated with Dexamethasone (100 nM) for 72 h, and in (C) AR42J cells were transfected with siRNA Non-targeting Control and siRNA against cofilin for 48 h, and then incubated with no addition (control) or CCK-8 (0.03 and 1 nM) and A71378 (0.03 and 1 nM) for 30 min. Amylase release, expressed as percent of cellular total amylase secreted, was determined after 30 min incubation. Means ± S.E. of at least 3 independent experiments. N.S., No significant.

[4] = tested on: LIMK (pT508) in pancreatic acini; experiment: LIMK phosphorylation (pT508 LIMK Western blot) in isolated rat pancreatic acini
Method: Pancreatic acini preparations were obtained by collagenase digestion as previously described ([Bissonnette et al., 1984]; [Sato et al., 1989]; [Ramos-Alvarez and Jensen, 2018]). After collagenase digestion, dispersed acini were preincubated with different inhibitors in standard incubation solution ([Ramos-Alvarez and Jensen, 2018]; [Ramos-Ãlvarez et al., 2020]) for 3 h at 37°C under conditions specific for PKD/PKC, Src, PI3K, MAPKs, SSH1, LIMK, cofilin, other phosphatases and PAK4 inhibitors, as described previously ([Ramos-Alvarez and Jensen, 2018]; [Ramos-Ãlvarez et al., 2020]). Isolated acini and CCK1-R/Panc-1 cells (M&M 2.2.1) were also preincubated with two SSH1 inhibitors, D3 (25 μM, 1 h) ([Li et al., 2015]) or SE (50 μM, 3 h for acini; 24 h for CCK1-R/Panc-1 cells) ([Lee et al., 2017]). After preincubation, 1 mL aliquots of dispersed acini were incubated at 37°C for 3–15 min with CCK-8 (0.3 nM or 100 nM), for 5–15 min with TPA (1 µM) or without stimulants, used as control. Cells were lysed in lysis buffer (50 mM Tris/HCl pH 7.5, 150 mM NaCl, 1% Triton X-100, 1% deoxycholate, 0.1% sodium azide, 1 mM EGTA, 0.4 mM EDTA, 0.2 mM sodium orthovanadate, 1 mM PMSF, and one protease inhibitor tablet per 10 mL). After sonication, lysates were centrifuged at 10,000×g for 15 min at 4°C and protein concentration was measured using the Bio-Rad protein assay reagent. Finally, cells were processed as below for Western blotting.
Both concentrations of CCK-8 were used because CCK-8 is reported to have different responses with physiological and supraphysiological concentrations contributing to physiological and pathophysiological processes such as pancreatitis ([Dufresne et al., 2006]).
Western blotting and immunoprecipitation were performed as described previously ([Ramos-Alvarez and Jensen, 2018]). Whole cell lysates were subjected to SDS-PAGE using 4%–20% Tris–Glycine gels. […] Finally, membranes were then washed again twice in blocking buffer for 4 min, twice in washing buffer for 4 min, incubated for 4 min with chemiluminescence detection reagents. The intensity of the protein bands was measured using GeneTools software from Syngene, which were assessed in the linear detection range.
Isolated pancreatic acini were incubated with either no addition (control), CCK-8 (0.3 and 100 nM) or TPA (1 µM) for the indicated periods of time and then lysed. Western blots were analyzed using anti-pT508 LIMK, anti-pS3 cofilin and anti-pS978 SSH1, which […] the activation states of LIMK, cofilin and SSH1. Bands were visualized using chemiluminescence and quantified by densitometry.

Row | Compound | inhibition of CCK1-R-induced activation of cofilin in AR42J cells [1] | decrease of A71378-mediated activation of p44/42 [2] [%] | inhibition of CCK-8/A71378-induced amylase secretion [3] | effect on basal amylase release [3] | time of return of LIMK phosphorylation to basal levels ([4]; CCK-8 0.3 or 100 nM) [min] | effect on LIMK dephosphorylation ([4]; TPA 1 µM)
1 | C=C1[C@@H](C)[C@H]2[C@H](Cc3ccccc3)NC(=O)[C@]23[C@H](OC(C)=O)/C=C/[C@@](C)(O)C(=O)[C@@H](C)C/C=C/[C@H]3[C@@H]1O [Cytochalasin D] | completely inhibited | 34 | completely inhibited | Neither of these two cofilin inhibitors influenced basal amylase release |  | 
2 | COOH-terminal octapeptide of cholecystokinin [CCK-8] |  |  |  |  | 30 | 
3 | CC(=O)O[C@H]1C(=O)[C@@]2(C)[C@H]([C@H](OC(=O)c3ccccc3)[C@]3(O)C[C@H](OC(=O)[C@H](O)[C@@H](NC(=O)c4ccccc4)c4ccccc4)C(C)=C1C3(C)C)[C@]1(OC(C)=O)CO[C@@H]1C[C@@H]2O [Paclitaxel] | completely inhibited | 36 | completely inhibited | Neither of these two cofilin inhibitors influenced basal amylase release |  | 
4 | CCCCCCCCCCCCCC(=O)O[C@@H]1[C@@H](C)[C@@]2(O)[C@@H](C=C(CO)C[C@]3(O)C(=O)C(C)=C[C@@H]23)[C@H]2C(C)(C)[C@]12OC(C)=O [TPA, 12-O-tetradecanoylphobol-13-acetate] |  |  |  |  |  | did not cause LIMK dephosphorylation

Source: paper PMC10149936, “Cofilin activation in pancreatic acinar cells plays a pivotal convergent role for mediating CCK-stimulated enzyme secretion and growth” (Frontiers in Physiology, 2023)
